Reference: patent US20030220524A1, “Sulfur containing compounds” (priority 2000, published 2003)
“And” between values parts separate entries of the source, which are not always exact repeats. Equal entries are not always repeated. Where two headings read alike, the source gives them in different places. Values belong to the molecule of their own block, whether it stands above or below them.

Experiments:
Aspergillus niger [1] = experiment: Antifungal paper disk test, diameter of clear zone; type: cell-based; conditions: for zone of inhibition at 100 µg/disc: 100 μg/disk, read-out: Diameter (mm) of clear Zone A. niger
Experimental: (§1) Sulfur compounds were tested for antifungal activity against pure cultures of Aspergillus niger and Aspergillus flavus supplied by Ward's Natural Science Ltd (St. Catharines, Ontario, Canada). They were maintained on Sabouraud Dextrose Agar.
(§2) For the test, 6 agar plugs (5 mm diameter) were cut from a 5-8 day old colony and homogenized in distilled, sterilized water (2 ml). A portion of this suspension (0.5 ml) was transferred aseptically to a Petri plate with Sabouraud Dextrose Agar (15 ml) and spread evenly over the entire surface. […] Each test compound was applied to the disks as a solution (50 mg compound/10 ml acetone). Control disks were treated with neat acetone (20 μl). Test plates with fungal homogenates and disks were incubated at 18-20° C. for 2 days. For each test four replicate plates were used. The diameter of the clear zone surrounding the disk was taken as the indicator of antifungal activity.

Aspergillus flavus [2] = experiment: Antifungal paper disk test, diameter of clear zone; type: cell-based; conditions: for zone of inhibition at 100 µg/disc: 100 μg/disk, read-out: Diameter (mm) of clear Zone A. flavus
Experimental: as §1, §2

Aspergillus niger [3] = experiment: Antifungal paper disk test, diameter of clear zone; type: cell-based; conditions: 0.25 μg/disk; Appl'n Solvent DMSO
Aspergillus flavus [4] = experiment: Antifungal paper disk test, diameter of clear zone; type: cell-based; conditions: 0.25 μg/disk; Appl'n Solvent DMSO
[5] = test system: Aspergillus niger and Aspergillus flavus; experiment: Antifungal activity; type: cell-based; conditions: in words; dose not given
Experimental: as §1
For the test, 6 agar plugs (5 mm diameter) were cut from a 5-8 day old colony and homogenized in distilled, sterilized water (2 ml). A portion of this suspension (0.5 ml) was transferred aseptically to a Petri plate with Sabouraud Dextrose Agar (15 ml) and spread evenly over the entire surface. Each plate was supplied with four evenly spaced paper disks (7 mm, Whatman Number 1 filter paper) containing the test compound (0, 25, 50 and 100 μg respectively). Each test compound was applied to the disks as a solution (50 mg compound/10 ml acetone). Control disks were treated with neat acetone (20 μl). Test plates with fungal homogenates and disks were incubated at 18-20° C. for 2 days. For each test four replicate plates were used. The diameter of the clear zone surrounding the disk was taken as the indicator of antifungal activity.

[6] = test system: Normal bone marrow (mononucleated, T-cell depleted); experiment: MTT assay; type: cell-based; conditions: Normal bone marrow, 48 h, read-out: MTT50
Experimental: (§3) All cell lines were assayed as asynchronously growing cells. Leukemic cell lines, OCI-AML-2, OCI-AML-3 (referred to hereafter as AML-2 and AML-3, respectively), NB-4, KK, B1, G2, and W1 were cultured in alpha-minimal essential medium (α-MEM) (Princess Margaret Hospital Media Services) supplemented with 10% fetal bovine serum (FBS) (Sigma, St. Louis, Mo.). Non-transformed, diploid fibroblast lines WI38 and IMR90, were cultured in α-MEM and MEM F-15, respectively supplemented with 10% FBS. Media for IMR90 cells was also supplemented with 1.5 g/L bicarbonate and 1 mM pyruvate. Breast tumour cell lines, MDA-231, SK-BR-3, MCF-7, ZR-751, and melanoma tumour cell lines, WM9, WM983, WM793, 1232, were grown in α-MEM supplemented with 10% fetal bovine serum. Prostate tumour cell lines, DU145 and PC-3, were grown in RPMI 1640 media supplemented with 10% FBS. All cell lines were cultured in the presence of penicillin/streptomycin. Mononucleated cells were isolated from normal bone marrow using Ficoll hypaque and then T-cell depleted. T-cell depletion was performed by incubating the mononucleated bone marrow cells in α-MEM at a concentration of 2×10^7 cells/mL with 10% absor FBS and 10% (v/v) sheep red blood cells for 4 to 16 h. Absor FBS was prepared beforehand by heating FBS at 56° C. for 1 h, incubating with sheep red blood cells at 0.5% (v/v) for 1 h and then filtering the FBS with a […]. The T-cell depleted, mononucleated cells were recovered using Ficoll hypaque and were maintained in α-MEM supplemented with 20% FBS and 10% 5637 ? nditioned media. 5637 conditioned media ? s previously harvested from confluent 5637 cells after a 3 day incubation. Normal bone marrow from bone marrow transplant donor was collected following informed consent according to institutional guidelines.
(§4) Approximately 20 mg of each compound was dissolved in 5 mL of ACS grade acetone (Sigma) using a 5 mL volumetric flask. Stock solutions of the compounds were stored in the dark at −20° C. Compounds were diluted prior to each experiment.
(§5) Adherent cells were seeded at 67×10^3 cells/mL in a 96 well plate (Falcon, Mississauga, Ontario) the day prior to exposure to compound. Suspension cells were seeded at 27×10^4 cells/mL in a 96 well plate the day of exposure to compound. Mononucleated, T-cell depleted normal bone marrow cells were seeded at 67×10^4 cells/mL in a 96 well plate the day of exposure to compound. Compounds and solvent control were added to cells and assayed in triplicate or sextuplet. Following 48 h of incubation at 37° C. with 5% CO2, 40 μL of a 5 mg/mL solution of 3-[4,5-dimethylthiazol-2-yl]-2,5-diphenyltetrazolium bromide (MTT) substrate (Sigma) in Dulbecco's phosphate-buffered saline (D-PBS) was added. After 4 h of incubation at 37° C. with 5% CO2, the resulting violet formazan precipitate was solubilized by the addition of 80 μL of a 0.01 M HCI, 10% sodium dodecyl sulfate (SDS; Sigma) solution overnight at 37° C. with 5% CO2. The plates were then analyzed using the BioRad Benchmark Microplate Reader (BioRad Laboratories, Hercules, Calif.) at 570 nm to determine the optical density of the samples. MTT data was analyzed using Prism 3.0 (GraphPad Software, Inc., San Diego, Calif.) by the Chou-Talalay method. MTT graphs shown are a representative experiment.
(§6) Adherent cells were seeded at 67×10^3 cells/mL in a 96 well plate (Falcon, Mississauga, Ontario) the day prior to exposure to compound. Suspension cells were seeded at 27×10^4 cells/mL in a 96 well plate the day of exposure to compound. Mononucleated, T-cell depleted normal bone marrow cells were seeded at 67×10^4 cells/mL in a 96 well plate the day of exposure to compound. Compounds and solvent control were added to cells and assayed in triplicate or sextuplet. […]

KK leukemic cell line [7] = experiment: Fixed propidium iodide staining, flow cytometry; type: cell-based, human; conditions: dose 129.6 uM (ug/mL), 48 h
Experimental: (§7) Adherent cell lines were plated at 35×10^4 cells/60 cm^2 dish the day before exposure to compound. Suspension cells were seeded at 25×10^4 cells/mL in a 6 well dish (Falcon) the day of exposure to compound. Mononucleated, T-cell depleted normal bone marrow cells were seeded at 50×10^4 cells/mL in a 6 well dish the day of exposure to compound. Cells were exposed to solvent control or approximate MTT50 and MTT30 concentrations of the compound. After 48 h of exposure to the compound, cells were harvested, fixed in 80% ethanol for 1 h on ice and labeled with 50 μg/mL propidium iodide (Sigma). Approximately 10^6 cells were analyzed using a XL-MCL flow cytometer (Coulter Corporation, Miami, Fla.) and a FACScalibar cytometer (Becton Dickinson, San Jose, Calif.). Profiles shown are a representative.
as §7, with “cm2” for “cm^2”, “concentrations.” for “concentrations of the compound.”, “representative. Cell viability counts and Pi staining were performed as previously described (Dimitroulakos, J, Nohynek, D, Backway, K L, Hedley, D W, Yeger, H, Freedman, M H, Minden, M D and Penn, L Z: Increased sensitivity of acute myeloid leukemias to lovastatin-induced apoptosis: A potential therapeutic approach. Blood 93: 1308-18, 1999).” for “representative.”

AML-3 leukemic cell line [8] = experiment: Fixed propidium iodide staining, flow cytometry; type: cell-based, human; conditions: dose 129.6 uM (ug/mL), 48 h
Experimental: as §7
as §7, with “cm2” for “cm^2”, “concentrations.” for “concentrations of the compound.”, “representative. Cell viability counts and Pi staining were performed as previously described (Dimitroulakos, J, Nohynek, D, Backway, K L, Hedley, D W, Yeger, H, Freedman, M H, Minden, M D and Penn, L Z: Increased sensitivity of acute myeloid leukemias to lovastatin-induced apoptosis: A potential therapeutic approach. Blood 93: 1308-18, 1999).” for “representative.”

KK leukemic cell line [9] = experiment: MTT assay; type: cell-based, human; conditions: KK, 48 h, read-out: MTT50
Experimental: as §3, §4, §5, §6

AML-3 leukemic cell line [10] = experiment: MTT assay; type: cell-based, human
Experimental: as §3, §4, §5, §6

[11] = test system: WI38 non-transformed diploid fibroblasts; experiment: MTT assay; type: cell-based, human; conditions: for IC50: WI38 (normal), 48 h, read-out: MTT50
Experimental: as §3, §4, §5, §6

NB-4 leukemic cell line = experiment: MTT assay; type: cell-based, human; conditions: NB-4, 48 h, read-out: MTT50
Experimental: as §3, §4, §5, §6

B1 leukemic cell line = experiment: MTT assay; type: cell-based, human; conditions: B1, 48 h, read-out: MTT50
Experimental: as §3, §4, §5, §6

G2 leukemic cell line = experiment: MTT assay; type: cell-based, human; conditions: 48 h, read-out: MTT50
Experimental: as §3, §4, §5, §6

W1 leukemic cell line = experiment: MTT assay; type: cell-based, human; conditions: 48 h, read-out: MTT50
Experimental: as §3, §4, §5, §6

[12] = test system: Aspergillus niger and Aspergillus flavus; experiment: Antifungal activity; type: cell-based; conditions: in words; 10 μg/disk
[13] = 0.25 μg/disk, Appl'n Solvent Acetone
[14] = Homo sapiens, AML3, 48 h, AML-3, read-out: MTT50

Structure (SMILES): CCC(=O)OCSSCOC(=O)CC [(C2H5C(O)OCH2S)2, 2,3-dithiabutane-1,4-dipropionate]
Diameter (mm) of clear Zone A. niger (Aspergillus niger [1]; [13]): 3.6 mm
Diameter (mm) of clear Zone A. flavus (Aspergillus flavus [2]; [13]): 6.7 mm
Diameter (mm) of clear Zone A. niger (Aspergillus niger [3]): 8.0 mm
Diameter (mm) of clear Zone A. flavus (Aspergillus flavus [4]): 6.1 mm

Structure (SMILES): C[C@@H]1[C@H](O)[C@@H](C)/C=C/C=C/C=C/C=C/C=C/C=C/C=C/[C@H](O[C@@H]2O[C@H](C)[C@@H](O)[C@H](N)[C@@H]2O)C[C@@H]2O[C@](O)(C[C@@H](O)C[C@@H](O)[C@H](O)CC[C@@H](O)C[C@@H](O)CC(=O)O[C@H]1C)C[C@H](O)[C@H]2C(=O)O [Amphotericin B, reference compound]
Antifungal activity [5]: most potent of the 3 commercial antifungals tested
Diameter (mm) of clear Zone A. niger (Aspergillus niger [3]): 4.2 mm
Diameter (mm) of clear Zone A. flavus (Aspergillus flavus [4]): 4.1 mm

Structure (SMILES): CSCSCSC [J, 2,4,6-trithiaheptane]
zone of inhibition at 100 µg/disc (Aspergillus niger [1]; Aspergillus niger, acetone): 0 mm
zone of inhibition at 100 µg/disc (Aspergillus flavus [2]; Aspergillus flavus, acetone): 0 mm
IC50 ([6]; T-cell): > 162 µM
Antifungal activity [5]: do not possess antiproliferative activity on either fungal or mammalian cells
% pre-G1 (Fixed PI) (KK leukemic cell line [7]): 2.6%
% pre-G1 (Fixed PI) (AML-3 leukemic cell line [8]): 0.2%
IC50 (KK leukemic cell line [9]; Homo sapiens): > 162 µM
IC50 (AML-3 leukemic cell line [10]; [14]): > 162 µM
IC50 ([11]; Homo sapiens, WI-38, 48 h): > 162 µM
Viability of non-transformed human WI38 fibroblasts following exposure ([11]; in words): not affected

Structure (SMILES): CSSc1ccccc1[N+](=O)[O-] [o-O2N(C6H4)SSCH3, methyl o-nitrophenyl disulphide]
zone of inhibition at 10 µg/disc (Aspergillus niger [1]; Aspergillus niger, 10 μg/disk, acetone): 2.8 mm
zone of inhibition at 10 µg/disc (Aspergillus flavus [2]; Aspergillus flavus, 10 μg/disk, acetone): 1.9 mm
Antifungal activity / fungitoxicity [12]: pronounced toxicity

The next lines start with results.

melting point: 34.8 to 35.3 °C
Structure (SMILES): CSSCCCS(C)(=O)=O [CH3SO2CH2CH2CH2SSCH3, 2,3,7-trithiaoctane 7,7-dioxide]
zone of inhibition at 100 µg/disc (Aspergillus niger [1]; Aspergillus niger, acetone): 0 mm
zone of inhibition at 100 µg/disc (Aspergillus flavus [2]; Aspergillus flavus, acetone): 0 mm

IC50 (NB-4 leukemic cell line): 6.36 µM and 7.8 µM
IC50 (B1 leukemic cell line): 6.07 µM
IC50 (KK leukemic cell line [9]): 6.6 µM
IC50 (G2 leukemic cell line): 6.61 µM and 5.8 µM
IC50 (AML-3 leukemic cell line [10]; AML-3, 48 h, read-out: MTT50): 4.6 µM
Structure (SMILES): CCCCCSSCS(C)(=O)=O [K]
IC50 [6]: 22 µM
IC50 [11]: 19 µM

IC50 (B1 leukemic cell line): 6.34 µM
IC50 (KK leukemic cell line [9]): 6.3 µM
IC50 (G2 leukemic cell line): 3.8 µM
IC50 (AML-3 leukemic cell line [10]; AML-3, 48 h, read-out: MTT50): 7.46 µM
IC50 (W1 leukemic cell line): 7.26 µM
Structure (SMILES): CS(=O)(=O)Sc1ccccc1 [L, Phenyl Methanethiosulfonate]
Diameter (mm) of clear Zone A. niger (Aspergillus niger [1]; 25 μg/disk, acetone): 0 mm
Diameter (mm) of clear Zone A. flavus (Aspergillus flavus [2]; 25 μg/disk, acetone): 3.7 mm
IC50 [6]: 44.2 µM

IC50 (NB-4 leukemic cell line; Homo sapiens): 62.9 µM
IC50 (B1 leukemic cell line; Homo sapiens): 57.4 µM
IC50 (KK leukemic cell line [9]; Homo sapiens): 96.9 µM
IC50 (AML-3 leukemic cell line [10]; AML-3, 48 h, read-out: MTT50): 44.1 µM
IC50 (AML-3 leukemic cell line [10]; [14]): 55.8 µM
Structure (SMILES): COC(=O)CSSCC(=O)OC [O, dimethyl 3,4-dithiaadipate]
zone of inhibition at 100 µg/disc (Aspergillus niger [1]; Aspergillus niger, acetone): 0 mm
zone of inhibition at 100 µg/disc (Aspergillus flavus [2]; Aspergillus flavus, acetone): 0 mm
IC50 ([6]; T-cell): > 100 µM
IC50 ([11]; Homo sapiens, WI-38, 48 h): 73.9 µM
